Where two headings read alike, the source gives them in different places.

For data set [1], the system named is influenza virus (A/Weiss/43(H1N1)). Nature of the data set: Cytopathic effect assay (CPE assay), antiviral activity. Conditions: MDCK cells, CPE inhibition, CCK-8, read-out: EC50 against influenza virus (A/Weiss/43(H1N1)) in vitro. The format is cell-based. A general note: Protection from cytopathic effect is a common read-out in antiviral testing.
Data set [2] in a line: Cytotoxicity test group of the CPE assay (no virus added, CCK-8 kit). The class given is cell-based. Conditions: dog, MDCK cells. How it is done: (§1) Experimental Procedures: MDCK cells were seeded in a 384-well plate with 2000 cells per wells, which were incubated overnight at 37° C., 5% CO2; The culture medium was changed to the fresh culture solution containing different concentrations of the compound and virus H1N1 A/Weiss/43 at a multiplicity of infection to yield 80-95% CPE on the second day. The test compound was serially diluted from the highest concentration of 100 nM in 1:3 dilutions to give 8 concentrations: 100 nM, 33.33 nM, 11.11 nM, 3.70 nM, 1.23 nM, 0.41 nM, 0.14 nM, 0.05 nM. At the same time, a non-medicated virus control group and a non-medicated cell control group free of virus were set up. No virus was added in the cytotoxicity test group but medium was added for replacement. Each group was set in duplicate, and incubated at 37° C. in 5% CO2. The cell activity was measured according to the CCK-8 kit (source: Shanghai Liji Biotechnology Co., Ltd. #D3100L4057) and the data would be used to calculate the antiviral and cytotoxicity of the compound. Data were analyzed by GraphPad Prism, CPE inhibition rate was calculated, and the EC50 was obtained according to the fitted curve. CPE inhibition rate=(absorbance of dosing hole-absorbance of virus control well)/(absorbance of cell control well-virus control well)×100%
(In general: Tetrazolium dyes change colour on reduction, which living cells bring about.)

The subject of the next data set is MDCK cells. Described as above. The format is cell-based. Here is the method: as §1
Details of data set [3]: species or system Beagle dogs. The settings on record: male, beagle, dog, in vivo. How it is done: Pharmacokinetic studies of compounds of the invention in healthy adult male SD rats, dogs or monkeys were evaluated. The compound of the present invention was administered in form of a solution containing 10% DMSO+10% Kolliphor HS 15+80% physiological saline solution. For intravenous (iv) administration, animals were given with a dose of 0.2 or 1 mg/kg and blood was taken at 0.083, 0.25, 0.5, 1.0, 2.0, 5.0, 7.0, and 24 hours (0.3 mL) and centrifugated for 10 minutes at 3,000 or 4,000 rpm. For oral (po) administration, animals were given with a dose of 1 or 5 mg/kg, taken at 0.25, 0.5, 1.0, 2.0, 5.0, 7.0, and 24 hours (0.3 mL) and centrifugated at 3,000 or 4,000 rpm for 10 minutes. The plasma solution was collected and stored at −20° C. or −70° C. until the LC/MS/MS analysis was performed.

Turning to `O=C1c2c(O)c(=O)ccn2N([C@H]2c3ccc(F)cc3-c3ccsc3-c3ccccc32)[C@@H]2COCCN12` [Compound (20-1), (R)-12-((S)-5-fluoro-8H-dibenzo [3,4:6,7]cyclohept[1,2-b]thiophen-8-yl)-7-hydroxy-3,4,12,12a-tetrahydro-1H-[1,4]oxazino[3,4-c]pyrido[2,1-f][1,2,4]triazine-6,8-diketone], the EC50 in data set [1] is 4.9 nM.
Consider `O=C1c2c(O)c(=O)ccn2N([C@H]2c3ccc(F)c(F)c3CSc3c2ccc2ccccc32)[C@@H]2COCCN12` (racemic) [Example 7, (R)-12-((S)-10,11-difluoro-7,12-dihydrobenzo [e]naphtho [1,2-b]thiepin-7-yl)-7-hydroxy-3,4,12,12a-tetrahydro-11H-[1,4] oxazino [3,4-c] pyrido [2,1-f] [1,2,4] triazine-6,8-dione and (S)-12-((R)-10,11-difluoro-7,12-dihydrobenzo[e]naphtho[1,2-b]thiepin-7-yl)-7-hydroxy-3,4,12,12a-tetrahydro-1H-[1,4]oxazino[3,4-c]pyrido[2,1-f][1,2,4]triazine-6,8-dione], for which the CC50 (commonly the concentration giving 50% cytotoxicity) in data set [2] was above 100000 nM.
“The mixture of (12aR)-12-((8R)-4-fluoro-8H-dibenzo [3,4:6,7]cyclohepta[1,2-b]thiophen-8-yl)-7-hydroxy-3,4,12,12a-tetrahydro-1H-[1,4]oxazino [3,4-c] pyrido [2,1-f] [1,2,4]triazine-6,8-dione and (12aR)-12-((8S)-4-fluoro-8H-dibenzo [3,4:6,7] cyclohept[1,2-b]thiophen-8-yl)-7-hydroxy-3,4,12,12a-tetrahydro-1H-[1,4]oxazino [3,4-c] pyrido [2,1-f] [1,2,4]triazine-6,8-dione [Example 36]”: in data set [1], the EC50 was determined as 9.87 nM. Moreover, in the data set with MDCK cells, the CC50 was found to be 36000 nM.
As to `O=C1c2c(O)c(=O)ccn2N([C@H]2c3ccccc3-c3ccsc3-c3ccccc32)[C@H]2COCCN12` (racemic) [Example 3, (S)-12-((S)-8H-dibenzo [3,4:6,7]cycloheptyl [1,2-b]thiophen-8-yl)-7-hydroxy-3,4,12,12a-tetrahydro-1H-[1,4] oxazino [3,4-c] pyrido [2,1-f] [1,2,4] triazine-6,8-dione and (R)-12-((R)-8H-dibenzo [3,4:6,7]cycloheptyl [1,2-b]thiophen-8-yl)-7-hydroxy-3,4,12,12a-tetrahydro-1H-[1,4] oxazino [3,4-c] pyrido [2,1-f][1,2,4] triazine-6,8-dione], the EC50 in data set [1] (H1N1) stood at 23.5 nM. In data set [2], this compound had a CC50 above 100000 nM.
On the same counts, the results for `O=C1c2c(O)c(=O)ccn2N([C@H]2c3ccc(F)cc3-c3ccsc3-c3cc(F)ccc32)[C@@H]2COCCN12` [Compound (17-1), (R)-12-((S)-5,11-difluoro-8H-dibenzo[3,4:6,7]cyclohepta[1,2-b]thiophen-8-yl)-7-hydroxy-3,4,12,12a-tetrahydro-1H-[1,4]oxazino[3,4-c]pyrido[2,1-f][1,2,4]triazine-6,8-dione] are 18.8 nM and 77500 nM.
For `O=C1c2c(O)c(=O)ccn2N([C@H]2c3ccccc3-c3ccsc3-c3ccccc32)[C@@H]2COCCN12` (racemic) [Example 2, (R)-12-((S)-8H-dibenzo [3,4:6,7]cycloheptyl [1,2-b]thiophen-8-yl)-7-hydroxy-3,4,12,12a-tetrahydro-1H-[1,4] oxazino[3,4-c] pyrido [2,1-f] [1,2,4] triazine-6,8-dione and (S)-12-((R)-8H-dibenzo [3,4:6,7]cycloheptyl [1,2-b]thiophen-8-yl)-7-hydroxy-3,4,12,12a-tetrahydro-1H-[1,4] oxazino[3,4-c] pyrido [2,1-f][1,2,4] triazine-6,8-dione], in that order: 22.8 nM and above 100000 nM.
For `O=C1c2c(O)c(=O)ccn2N([C@H]2c3ccccc3-c3cnoc3-c3ccccc32)[C@@H]2COCCN12` [Example 38, 12-(8H-Dibenzo [3,4:6,7]cyclohepta[1,2-d]isoxazol-8-yl)-7-hydroxy-3,4,12,12a-tetrahydro-1H-[1,4]oxazino[3,4-c]pyrido[2,1-f] [1,2,4]triazin-6,8-dione], in that order: 38 nM and above 100000 nM.
Consider `O=C1c2c(O)c(=O)ccn2N(C2c3ccccc3-c3ccsc3-c3c2ccc(F)c3F)C2COCCN12` (stereo not shown) [Example 11, 12-(11,12-Difluoro-8H-dibenzo [3,4:6,7]cycloheptyl [1,2-b]thiophen-8-yl)-7-Hydroxy-3,4,12, 12a-tetrahydro-1H-[1,4]oxazino[3,4-c]pyrido[2,1-f][1,2,4]triazine-6,8-dione], for which the EC50 in data set [1] (H1N1) was found to be 48.7 nM.
Take `O=C1c2c(O)c(=O)ccn2N([C@H]2c3ccc(F)cc3-c3ccsc3-c3ccccc32)[C@@H]2COCCN12` (mixture of isomers) [Example 37, The mixture of (R)-12-((S)-5-fluoro-8H-dibenzo[3,4:6,7]cyclohepta[1,2-b]thiophen-8-yl)-7-hydroxy-3,4,12,12a-tetrahydro-1H-[1,4]oxazino[3,4-c]pyrido[2,1-f][1,2,4]triazine-6,8-dione and (S)-12-((R)-5-fluoro-8H-dibenzo [3,4:6,7]cyclohepta[1,2-b]thiophen-8-yl)-7-hydroxy-3,4,12,12a-tetrahydro-1H-[1,4]oxazino [3,4-c]pyrido [2,1-f][1,2,4]triazine-6,8-dione]: in data set [1] (H1N1), the EC50 worked out at 14.9 nM. Moreover, the midpoint of cytotoxicity in data set [2], the CC50, lay at 104000 nM.
Consider `O=C1c2c(O)c(=O)ccn2N([C@@H]2c3ccccc3-c3sccc3-c3c(F)cccc32)[C@@H]2COCCN12` [Compound (21-2), (12aR)-12-((8S)-4-fluoro-8H-dibenzo [3,4:6,7]cyclohept[1,2-b]thiophen-8-yl)-7-hydroxy-3,4,12,12a-tetrahydro-1H-[1,4]oxazino[3,4-c]pyrido[2,1-f] [1,2,4]triazine-6,8-dione], for which the EC50 in data set [1] (H1N1) is 18.9 nM.
Regarding `O=C1c2c(O)c(=O)ccn2N(C2c3ccccc3-c3cc(Cl)sc3-c3ccccc32)[C@@H]2COCCN12` (stereo partly drawn) [Example 15, (12aR)-12-(2-chloro-8H-dibenzo [3,4:6,7]cyclohept[1,2-b]thiophen-8-yl)-7-hydroxy-3,4,12,12a-tetrahydro-1H-[1,4] oxazino [3,4-c] pyrido [2,1-f] [1,2,4]triazine-6,8-dione], in data set [2], it took 39400 nM to reach half-maximal cytotoxicity (CC50).
In the case of `COC(=O)OCOc1c2n(ccc1=O)N([C@H]1c3ccc(F)cc3-c3ccsc3-c3ccccc31)[C@@H]1COCCN1C2=O` [Example 28, methyl (((R)-12-((S)-5-fluoro-8H-dibenzo [3,4:6,7]cyclohept[1,2-b]thiophen-8-yl)-6,8-dioxo 3,4,6,8,12,12a-hexahydro-1H-[1,4]oxazino [3,4-c]pyrido [2,1-f] [1,2, 4]triazin-7-yl)oxy)methyl carbonate], in data set [3], the Conversion in animals entry is “converted to the compound of Example 21 (21-1) in animals”. In data set [3] (iv, 0.2 mg/kg), the AUCINF came to 1030 ng·h/mL; the AUClast is 996 ng·h/mL; the Cmax (commonly the maximum level reached in the sampled fluid or tissue) is on record as 144 ng/mL; the clearance (commonly a measure of how efficiently the substance is removed, as volume per time) amounted to 3.22 mL/min/kg. In addition, the t1/2 in data set [3] (iv, 0.2 mg/kg) is reported as 4.91 h. Further, in data set [3] (po, 1 mg/kg), the AUCINF was found to be 2580 ng·h/mL, the AUClast worked out at 2430 ng·h/mL, the Cmax was found to be 311 ng/mL and the F was 57.6%. Besides, in data set [3] (po, 1 mg/kg), the t1/2 was determined as 5.72 h.
`O=C1c2c(O)c(=O)ccn2N(C2c3ccccc3SCc3c2ccc2ccccc32)C2COCCN12` (stereo not shown) [Example 5, 12-(7,13-Dihydrobenzo [b]naphtho [2,1-e]thiepin-7-yl)-7-hydroxy-3,4,12,12a-tetrahydro-1H-[1,4] oxazino [3,4-c] pyrido [2,1-f] [1,2,4]triazine-6,8-dione] had a CC50 in data set [2] above 100000 nM.
On to `COc1cccc2c1-c1ccsc1-c1ccccc1C2N1[C@@H]2COCCN2C(=O)c2c(O)c(=O)ccn21` (stereo in doubt) [Example 19, (12aR)-7-hydroxy-12-((8R)-4-methoxy-8H-dibenzo [3,4:6,7]cyclohept[1,2-b]thiophen-8-yl)-3,4,12,12a-tetrahydro-1H-[1,4]oxazino[3,4-c]pyrido[2,1-f] [1,2,4]triazine-6,8-dione], for which the EC50 in data set [1] (H1N1) was 34.1 nM. The CC50 in data set [2] was above 100000 nM.

These data come from patent publication US11104689B2, “Influenza virus replication inhibitor and use thereof” (SUNSHINE LAKE PHARMA CO., LTD., priority 2017, dated 2021).
